According to patent publication US11390617B2, “Methods of treating non-Hodgkin lymphoma using 2-(2,6-dioxopiperidin-3-yl)-4-((2-fluoro-4-((3-morpholinoazetidin-1-yl)methyl)benzyl)amino)isoindoline-1,3-dione” (Celgene Corporation, priority 2019, dated 2022):
pEC50, pIC50: −log10 of the molar value.

Assays:
Test in all cases: Viability/apoptosis flow cytometry assay, DLBCL cell lines with acquired resistance to doxorubicin and parental lines
Format in all cases: cell-based
Oci-Ly10 DoxoR = conditions: 120 hours
Description: (§1) The following exemplary anti-proliferative assay uses exemplary DLBCL cell lines with acquired resistance to doxorubicin (Table 7). The in vitro growth inhibitory activity of Compound described herein was evaluated using a 384-well flow cytometry assay. The activity of Compound 1 was also evaluated in cell lines with acquired resistance to doxorubicin (one of the curative agents in the DLBCL standard of care regimen R-CHOP [rituximab, cyclophosphamide, doxorubicin, vincristine, and prednisone]) (Table 7).
(§2) The cell lines in Table 7 were plated in 96-well flat bottom plates and assessed with increasing concentrations of compound ranging from 0.0015 to 10 μM or dimethyl sulfoxide (DMSO) control. The final concentration of DMSO was 0.1% (v/v). Following the addition of Compound 1 or DMSO and incubation for 120 hours, cell number and cell death were analyzed by flow cytometry (Attune®, Thermo Fisher) using Annexin V and the vital dye, 7-AAD. Phosphatidylserine translocates from the inner layer to the outer layer of the cell membrane early in apoptosis and Annexin V binds to the exposed phosphatidylserine found on the surface of an apoptotic cell. The dye 7-AAD is excluded by intact live cells and only stains cells that have died as a result of apoptosis or necrosis.
(§3) Flow cytometry data analysis was then performed using the Flow Jo_v10 software to determine the number of viable cells (Annexin V and 7-AAD double negative staining cells) and percentage of apoptotic cells (Annexin V positive cells) for each condition. The live cell count for every concentration was normalized to the DMSO control (considered as 100%) to calculate the percentage of viable cells remaining after treatment and graphed using GraphPad Prism 7.03. The IC50 (50% inhibitory concentration) and Emax (maximum efficacy eliminating tumor cells achieved) values were then calculated by performing nonlinear regression curve fitting using log(inhibitor) vs. normalized response—variable slope analysis on GraphPad Prism 7.03. Area under the curve (AUC) was calculated by performing area under curve analysis on GraphPad Prism 7.03. Similarly, for apoptosis analysis, the percentage of apoptosis combining both “early” (Annexin V positive and 7-AAD negative) and “late” apoptosis (Annexin V and 7-AAD positive) cell gates relative to DMSO was graphed using GraphPad Prism 7.03. The AUC, EC50 (concentration of Compound 1 that produces half-maximal apoptosis response) and Ymax (maximal percentage of apoptosis achieved) values from apoptosis curves were calculated by performing area under curve analysis and nonlinear regression curve fitting using log(agonist) vs. normalized response—Variable slope analysis on GraphPad Prism 7.03.
(§4) In Table 8, dose-response proliferation curves for the cell lines with acquired resistance to doxorubicin and non-linear curve-fit regression were used to determine IC50, AUC, and Emax for % viable cells (Emax for viability varies between 100 at low doses and 0 at high doses, which corresponds to inhibition of all viable cells), and dose-response apoptosis curves were used to determine the EC50, AUC, and Ymax for % apoptosis (Ymax for apoptosis varies from 0 at low doses and 100 at higher doses which corresponds to death of all cells). Tumor cells were exposed to serial dilutions (0.00015 to 10 μM) of Compound 1 or dimethyl sulfoxide (DMSO) control for 5 days. Viability and apoptosis for all cell lines was determined by Annexin V/7-aminoactinomycin D (7-AAD) flow cytometry.

Oci-Ly10 Parental = conditions: 120 hours
Description: as §1, §2, §3, §4

SUDHL4 DoxoR = tested on: SUDHL4 DoxoR
Description: as §1, §2, §3, §4

SUDHL4 Parental = tested on: SUDHL4 Parental
Description: as §1, §2, §3, §4

U2932 DoxoR = conditions: 120 hours
Description: as §1, §2, §3, §4

U2932 Parental = conditions: 120 hours
Description: as §1, §2, §3, §4

WSU-DLCL2 DoxoR = tested on: WSU-DLCL2 DoxoR
Description: as §1, §2, §3, §4

WSU-DLCL2 Parental = tested on: WSU-DLCL2 Parental
Description: as §1, §2, §3, §4

[1] = Homo sapiens, read-out: IC50 (% Viable Cells)
[2] = Homo sapiens, SU-DHL-4, 120 hours
[3] = Homo sapiens, WSUDLCL2, 120 hours
[4] = Homo sapiens, WSUDLCL2, 120 hours, read-out: IC50 (% Viable Cells)

SMILES: O=C1CC[C@H](N2C(=O)c3cccc(NCc4ccc(CN5CC(N6CCOCC6)C5)cc4F)c3C2=O)C(=O)N1 [Compound 1, (S)-2-(2,6-dioxopiperidin-3-yl)-4-((2-fluoro-4-((3-morpholinoazetidin-1-yl)methyl)benzyl)amino)isoindoline-1,3-dione]
- AUC (% Viable Cells) (Oci-Ly10 DoxoR): 211.8
- AUC (Apoptosis) (Oci-Ly10 DoxoR): 27
- Emax (% Viable Cells) (Oci-Ly10 DoxoR): 25%
- Ymax (Apoptosis) (Oci-Ly10 DoxoR): 19.48%
- pEC50 (Oci-Ly10 DoxoR; Homo sapiens): 6.19
- pIC50 (Oci-Ly10 DoxoR; [1]): 7.05
- AUC (% Viable Cells) (Oci-Ly10 Parental): 285.5
- AUC (Apoptosis) (Oci-Ly10 Parental): 13
- Emax (% Viable Cells) (Oci-Ly10 Parental): 52%
- Ymax (Apoptosis) (Oci-Ly10 Parental): 10.12%
- pEC50 (Oci-Ly10 Parental; Homo sapiens): 6.09
- pIC50 (Oci-Ly10 Parental; [1]): 6.70
- AUC (% Viable Cells) (SUDHL4 DoxoR; 120 hours): 182.4
- AUC (Apoptosis) (SUDHL4 DoxoR; 120 hours): 84
- Emax (% Viable Cells) (SUDHL4 DoxoR; 120 hours): 7.5%
- Ymax (Apoptosis) (SUDHL4 DoxoR; 120 hours): 63.5%
- pEC50 (SUDHL4 DoxoR; [2]): 6.40
- pIC50 (SUDHL4 DoxoR; Homo sapiens, SU-DHL-4, 120 hours, read-out: IC50 (% Viable Cells)): 7.14
- AUC (% Viable Cells) (SUDHL4 Parental; 120 hours): 335
- AUC (Apoptosis) (SUDHL4 Parental; 120 hours): 6
- Emax (% Viable Cells) (SUDHL4 Parental; 120 hours): 75%
- Ymax (Apoptosis) (SUDHL4 Parental; 120 hours): 3.7%
- pEC50 (SUDHL4 Parental; [2]): 6.70
- AUC (% Viable Cells) (U2932 DoxoR): 256
- AUC (Apoptosis) (U2932 DoxoR): 15.7
- Emax (% Viable Cells) (U2932 DoxoR): 27.7%
- Ymax (Apoptosis) (U2932 DoxoR): 16%
- pEC50 (U2932 DoxoR; Homo sapiens): 5.95
- pIC50 (U2932 DoxoR; [1]): 6.60
- AUC (% Viable Cells) (U2932 Parental): 193
- AUC (Apoptosis) (U2932 Parental): 45.5
- Emax (% Viable Cells) (U2932 Parental): 28.4%
- Ymax (Apoptosis) (U2932 Parental): 30%
- pEC50 (U2932 Parental; Homo sapiens): 6.36
- pIC50 (U2932 Parental; [1]): 7.52
- AUC (% Viable Cells) (WSU-DLCL2 DoxoR; 120 hours): 195.9
- AUC (Apoptosis) (WSU-DLCL2 DoxoR; 120 hours): 74.4
- Emax (% Viable Cells) (WSU-DLCL2 DoxoR; 120 hours): 8.4%
- Ymax (Apoptosis) (WSU-DLCL2 DoxoR; 120 hours): 57%
- pEC50 (WSU-DLCL2 DoxoR; [3]): 6.40
- pIC50 (WSU-DLCL2 DoxoR; [4]): 7.15
- AUC (% Viable Cells) (WSU-DLCL2 Parental; 120 hours): 166.7
- AUC (Apoptosis) (WSU-DLCL2 Parental; 120 hours): 51
- Emax (% Viable Cells) (WSU-DLCL2 Parental; 120 hours): 28%
- Ymax (Apoptosis) (WSU-DLCL2 Parental; 120 hours): 29.5%
- pEC50 (WSU-DLCL2 Parental; [3]): 6.49
- pIC50 (WSU-DLCL2 Parental; [4]): 8.00
